Test results published in PMC7400108, “Squalamine and Aminosterol Mimics Inhibit the Peptidoglycan Glycosyltransferase Activity of PBP1b” (Antibiotics, 2020).
Values joined by “and” are separate entries in the source; they are usually repeats but may differ in a detail not shown here. Equal values may be shown once. “Also recorded” adds a separate entry of the source. Read-outs that look alike come from different tables or passages of the source.

Key:
E. coli PBP1b [1] = target: T1, E. coli PBP1b (Escherichia coli, UniProt P02919); assay: GTase inhibition assay: residual activity and IC50 of PBP1b (radioactive lipid II endpoint TLC assay, dansyl-lipid II continuous fluorescence assay); format: biochemical; conditions: up to 5 mM (1-5 mM), below CMC
T1 construct: PBP1bγ(M46-N844) was purified as previously described; made in house

E. coli PBP1b [2] = target: T1, E. coli PBP1b; assay: as above; format: biochemical; conditions: for RA % (0.4 mM), residual GTase activity of PBP1b: compound 0.4 mM (400 µM); for RA % (0.4 mM), residual GTase activity of PBP1b / RA % (0.8 mM), residual GTase activity of PBP1b / remaining activity at 800 µM: compared to nontreated control; for RA % (0.8 mM), residual GTase activity of PBP1b: compound 0.8 mM (800 µM); for remaining activity at 800 µM: read-out: RA % (0.8 mM), residual GTase activity of PBP1b, compound 0.8 mM (800 µM)
Method: The continuous fluorescence GTase activity assay of PBP1b was performed using dansyl lipid II as substrate as described.
The end-point assay, based on radiolabeled lipid II ([^14C]lipid II), was performed in 30 µL in the same conditions as the fluorescence assay using 4 µM [^14C]lipid II (0.06 µCi/nmol) instead of the fluorescent substrate and by omitting the muramidase. The reaction was incubated 15 min at 30 °C, stopped by heating at 80 °C for 10min and the products were separated by thin-layer chromatography (TLC) on silica gel plates in 2-propanol–ammonium hydroxide (25%)–H2O (6:3:1; v/v/v).
The GTase inhibition assay was carried out by measuring the residual activity (RA) of E. coli PBP1b in the presence of 400 and 800 μM compounds. All the assays were repeated at least three times. The IC50 values were determined for the active compounds using variable concentrations of inhibitor (0−1000 μM) by fitting the data using GraphPad Prism 6.0 software.

PBP1b = target: T2, PBP1b (Escherichia coli, UniProt P02919); assay: Fluorescence anisotropy competition assay, displacement of NBD-lipid II probe from PBP1b; format: binding; conditions: NBD-lipid II 0.33 µM, PBP1b ~1 µM, serial dilutions of compound
T2 construct: PBP1bγ(M46-N844) was purified as previously described; made in house
Method: (§1) FA assay was performed as previously described. Briefly, fixed concentrations of NBD-lipid II (0.33 µM) and PBP1b (~1 µM) in the 25 mM Tris–HCl pH 7.5, NaCl 0.1 M, CHAPS 0.14% w/v, were mixed with serial dilutions of the compounds in 384-well plates. Measurement were performed using an Infinite F Plex (Tecan, Männedorf, Switzerland) microplate reader equipped with polarization filters with excitation and emission wavelengths at 485 and 535 nm respectively. All the experiments were performed in triplicates. For direct binding evaluation of the compounds with the probe, the experiments were performed in the same condition in the absence of the protein. FA values in millianisotropy units (mA) were plotted as a function of compound concentrations in µM as previously described.

[3] = Fluorescence anisotropy direct binding of compounds to the probe in the absence of the protein; conditions: NBD-lipid II 0.33 µM, no protein
Method: as §1

S. aureus = test system: S. aureus; set-up: method as in PMID 31063379; conditions: cited from earlier work
E. coli = test system: E. coli; set-up: method as in PMID 31063379; conditions: cited from earlier work
[4] = mean of three experiments ± s.d.
[5] = variable inhibitor concentrations 0-1000 µM, mean of three experiments ± s.d., read-out: IC50, GTase activity of PBP1b

T1 sequence (P02919 46-844): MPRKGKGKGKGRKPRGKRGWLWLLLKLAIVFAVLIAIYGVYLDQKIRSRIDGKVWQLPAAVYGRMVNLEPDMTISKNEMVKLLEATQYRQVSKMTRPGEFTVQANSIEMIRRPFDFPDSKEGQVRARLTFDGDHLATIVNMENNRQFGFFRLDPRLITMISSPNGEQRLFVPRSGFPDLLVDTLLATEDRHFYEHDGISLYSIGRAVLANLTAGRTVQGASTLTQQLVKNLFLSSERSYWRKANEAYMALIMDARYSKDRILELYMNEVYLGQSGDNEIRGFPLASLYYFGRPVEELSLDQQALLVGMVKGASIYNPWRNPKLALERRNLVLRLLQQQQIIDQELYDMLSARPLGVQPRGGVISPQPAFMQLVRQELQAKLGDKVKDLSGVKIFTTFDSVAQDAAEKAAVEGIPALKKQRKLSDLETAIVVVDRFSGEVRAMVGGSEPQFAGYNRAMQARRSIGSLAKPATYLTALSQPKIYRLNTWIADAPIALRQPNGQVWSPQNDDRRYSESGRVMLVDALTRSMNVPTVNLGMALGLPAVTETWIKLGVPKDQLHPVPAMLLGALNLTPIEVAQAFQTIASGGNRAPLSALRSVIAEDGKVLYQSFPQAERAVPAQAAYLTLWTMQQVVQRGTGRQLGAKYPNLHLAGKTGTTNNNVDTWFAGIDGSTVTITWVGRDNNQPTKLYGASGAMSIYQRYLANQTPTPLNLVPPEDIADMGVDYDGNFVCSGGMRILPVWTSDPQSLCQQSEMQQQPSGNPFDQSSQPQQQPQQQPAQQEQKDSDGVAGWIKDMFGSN
T2 sequence (P02919 46-844): as above

With C[C@H](CCC(=O)NCCC[N+](C)(C)CCCS(=O)(=O)[O-])[C@H]1CCC2C3C(C[C@H](O)[C@@]21C)[C@@]1(C)CC[C@H](O)CC1C[C@H]3O (stereo partly drawn) [CHAPS] as the compound, how does the “Inhibition of PBP1b GTase activity (in words)” value (E. coli PBP1b [1]) read?
The value was “no inhibition”.

With CC(C)CCCC(C)C1CCC2C3C(NCCCCN)C=C4CC(O)CCC4(C)C3CCC12C (stereo not drawn) [Compound 2] as the compound, how does the “RA % (0.4 mM), residual GTase activity of PBP1b” value (E. coli PBP1b [2]; [4]) read?
The value was 1.2 ± 0.3%.

And the “RA % (0.8 mM), residual GTase activity of PBP1b” value (E. coli PBP1b [2]; [4])?
Its value is 0.3 ± 0.1%.

And the IC50 (E. coli PBP1b [2]; [5])?
The IC50 was 114 ± 6 µM.

What does the source list for CC(C)CCC[C@@H](C)[C@H]1CCC2C3C(CC[C@@]21C)[C@@]1(C)CC[C@H](O)CC1=C[C@@H]3NCCCNCCCCNCCCN (stereo partly drawn) [Compound 3]?
RA % (0.4 mM), residual GTase activity of PBP1b (E. coli PBP1b [2]; [4]): 16 ± 2%; remaining activity at 800 µM (E. coli PBP1b [2]; [4]): 8.5 ± 3.1%; IC50 (E. coli PBP1b [2]; [5]): 220 ± 10 µM

With CC(C)CCC[C@@H](C)[C@H]1CCC2C3C(CC[C@@]21C)[C@@]1(C)CC[C@H](O)CC1C[C@@H]3NCCCN (stereo partly drawn) [Compound 4] as the compound, how does the “RA % (0.4 mM), residual GTase activity of PBP1b” value (E. coli PBP1b [2]; [4]) read?
Its value is 39 ± 2%.

And the remaining activity at 800 µM (E. coli PBP1b [2]; [4])?
The remaining activity at 800 µM was 4 ± 1%.

And the IC50 (E. coli PBP1b [2]; [5])?
The IC50 was 303 ± 15 µM.

What does the source list for CC(C)CCC[C@@H](C)[C@H]1CCC2C3C[C@@H](NCCCCN)C4C[C@@H](O)CC[C@]4(C)C3CC[C@@]21C (stereo partly drawn) [Compound 5, 6β-(1,4-diaminobutane)-cholestan-3β-ol]?
RA % (0.4 mM), residual GTase activity of PBP1b (E. coli PBP1b [2]; [4]): 16 ± 1.4%; remaining activity at 800 µM (E. coli PBP1b [2]; [4]): 3 ± 1%; IC50 (E. coli PBP1b [2]; [5]): 221 ± 26 µM

With CC(C)CCC[C@@H](C)[C@H]1CCC2C3C[C@@H](NCCCNCCCCNCCCN)C4C[C@@H](O)CC[C@]4(C)C3CC[C@@]21C (stereo partly drawn) [Compound 6, 6β-(spermine)-cholestan-3β-ol] as the compound, how does the IC50 (E. coli PBP1b [2]) read?
Its IC50 is 111 ± 6 µM.

And the “RA % (0.4 mM), residual GTase activity of PBP1b” value (E. coli PBP1b [2]; [4])?
The value was 3.9 ± 0.1%.

What about the remaining activity at 800 µM (E. coli PBP1b [2]; [4]) of the same compound?
The remaining activity at 800 µM was 0.8 ± 0.4%.

And the “Competition with lipid II for binding to PBP1b (change of FA of the probe)” value (PBP1b)?
Its value is “able to compete; also recorded: decrease of the FA”.

What about the “Direct interaction between fluorescent lipid II and compound (FA)” value [3] of the same compound?
Its value is “no significant interaction”.

With CC(C)CCCC(C)C1CCC2C3C(NCCCCN)C=C4CC(O)CCC4(C)C3CCC12C (stereo not drawn) [Compound 9] as the compound, how does the “RA % (0.8 mM), residual GTase activity of PBP1b” value (E. coli PBP1b [2]; [4]) read?
Its value is 98% and 98 ± 1%.

And the “Inhibition of GTase activity of PBP1b (in words)” value (E. coli PBP1b [2]; concentration not given)?
The value was “almost inactive”.

Which “Inhibition of GTase activity of PBP1b (in words)” value (E. coli PBP1b [2]; concentration not given) does the source give for CC(=O)[C@H]1CC[C@H]2[C@@H]3CCC4=CC(=O)CC[C@]4(C)[C@H]3CC[C@]12C [Compound 12, progesterone, reference compound] here?
The value was “do not inhibit”.

What about the remaining activity at 800 µM (E. coli PBP1b [2]; [4]) of the same compound?
Its remaining activity at 800 µM is 98 ± 1%.

What does the source list for C[C@H](NCCCCN)[C@H]1CCC2C3CCC4=C[C@@H](NCCCCN)CC[C@]4(C)C3CC[C@@]21C (stereo partly drawn) [Compound 13]?
Inhibition of GTase activity of PBP1b (in words) (E. coli PBP1b [2]; 0.8 mM compound, radioactive lipid II, endpoint TLC assay): inactive; Inhibition of GTase activity of PBP1b (in words) (E. coli PBP1b [2]; concentration not given): absence of activity; remaining activity at 800 µM (E. coli PBP1b [2]; [4]): 100%

Which results are given for C[C@]12CCC3c4ccc(O)cc4CCC3C1CC[C@@H]2NCCCCN (stereo partly drawn) [Compound 15, (13S,17S)-17-((4-aminobutyl)amino)-13-methyl-7,8,9,11,12,13,14,15,16,17-decahydro-6H-cyclopenta[a]phenanthren-3-ol]?
Inhibition of GTase activity of PBP1b (in words) (E. coli PBP1b [2]; concentration not given): absence of activity; remaining activity at 800 µM (E. coli PBP1b [2]; [4]): 105 ± 3%; Competition with lipid II for binding to PBP1b (change of FA of the probe) (PBP1b): no effect; also recorded: does not affect the FA; Direct interaction between fluorescent lipid II and compound (FA) [3]: no significant interaction

What does the source list for CC(C)[C@@H](CC[C@@H](C)[C@H]1CC[C@H]2[C@@H]3[C@H](O)C[C@H]4C[C@@H](NCCCNCCCCN)CC[C@]4(C)[C@H]3CC[C@]12C)OS(=O)(=O)O [Squalamine (1), Squalamine]?
RA % (0.4 mM), residual GTase activity of PBP1b (E. coli PBP1b [2]; [4]): 6 ± 2%; remaining activity at 800 µM (E. coli PBP1b [2]; [4]): 1.1 ± 0.6%; IC50 (E. coli PBP1b [2]; [5]): 291 ± 26 µM; Competition with lipid II for binding to PBP1b (change of FA of the probe) (PBP1b): able to compete; also recorded: decrease of the FA; Direct interaction between fluorescent lipid II and compound (FA) [3]: no significant interaction; MIC (S. aureus): ~ 3 µg/mL; MIC (E. coli): ~ 3 µg/mL

What does the source list for “N1,N1’-((3S,7R,10R,13R,17R)-10,13-dimethyl-17-((R)-5-methylhexan-2-yl)-tetradecahydro-1H-cyclopenta[a]phenanthrene-3,7-diyl)bis(pentane-1,5-diamine) [Compound 7]”?
RA % (0.4 mM), residual GTase activity of PBP1b (E. coli PBP1b [2]; [4]): 12.5 ± 4.4%; RA % (0.8 mM), residual GTase activity of PBP1b (E. coli PBP1b [2]; [4]): 1.5 ± 0.8%; IC50 (E. coli PBP1b [2]; [5]): 229 ± 17 µM
